Data reported in the NIST ThermoML archive (doi:10.1021/acs.jced.7b00242).

Experiments:
[1] = refractive index (Na D-line) (dimensionless)

CCCCCCCCCCCC[n+]1ccn(C)c1.[Cl-] [1-dodecyl-3-methylimidazolium chloride]
Conditions | Normal melting temperature [°C]
Crystal, DTA | 96.22

CCCCCCCCCCCCn1cc[n+](C)c1.O=S(=O)([N-]S(=O)(=O)C(F)(F)F)C(F)(F)F
[1], 101 kPa, Liquid, Standard Abbe refractometry
Conditions | refractive index
293.15 K | 1.4385
298.15 K | 1.437
303.15 K | 1.4354
313.15 K | 1.4324
323.15 K | 1.4295
333.15 K | 1.4265
343.15 K | 1.4237
353.15 K | 1.4209
363.15 K | 1.4179

101 kPa, Liquid
Conditions | mass density, Vibrating tube method [kg/m3] | viscosity, Concentric cylinders viscometry [mPa·s]
293.15 K | 1253.1 | –
298.15 K | 1248 | 130.5
303.15 K | 1242 | 101.1
313.15 K | 1232.2 | 63.54
323.15 K | 1224.1 | 42.41
333.15 K | 1216 | 29.67
343.15 K | 1208.1 | 21.63
353.15 K | 1200 | 16.31
363.15 K | 1191.8 | 12.65

Liquid, Ring tensiometer
Conditions | surface tension liquid-gas [mN/m]
298.15 K | 28.1
303.15 K | 27.7
313.15 K | 26.9
323.15 K | 25.9
333.15 K | 24.9
343.15 K | 24.1
353.15 K | 23.3
363.15 K | 22.5

Conditions | Normal melting temperature [°C]
Crystal, DTA | 22.50

CCCCCCCCCCn1cc[n+](C)c1.O=S(=O)([N-]S(=O)(=O)C(F)(F)F)C(F)(F)F
[1], 101 kPa, Liquid, Standard Abbe refractometry
Conditions | refractive index
293.15 K | 1.4366
298.15 K | 1.4351
303.15 K | 1.4336
313.15 K | 1.4306
323.15 K | 1.4278
333.15 K | 1.425
343.15 K | 1.4222
353.15 K | 1.4194
363.15 K | 1.4166

101 kPa, Liquid
Conditions | mass density, Vibrating tube method [kg/m3] | viscosity, Concentric cylinders viscometry [mPa·s]
273.15 K | 1292.7 | –
289.15 K | 1287.3 | –
293.15 K | 1282.3 | 139.9
298.15 K | 1278.4 | 101.2
303.15 K | 1274.2 | 79.17
313.15 K | 1265.3 | 50.86
323.15 K | 1256.3 | 34.51
333.15 K | 1247.5 | 24.5
343.15 K | 1239.4 | 18.08
353.15 K | 1230.6 | 13.78
363.15 K | 1222.3 | 10.79

Liquid, Ring tensiometer
Conditions | surface tension liquid-gas [mN/m]
298.15 K | 29.8
303.15 K | 29.2
313.15 K | 28.3
323.15 K | 27.5
333.15 K | 26.9
343.15 K | 26.3
353.15 K | 25.7
363.15 K | 25.2

Conditions | Normal melting temperature [°C]
Crystal, DTA | 3.04

CCCCCCCCCCn1cc[n+](C)c1.[Cl-] [1-decyl-3-methylimidazolium chloride]
[1], 100 kPa, Liquid, Standard Abbe refractometry
Conditions | refractive index
293.15 K | 1.5002
298.15 K | 1.4988
303.15 K | 1.4972
313.15 K | 1.4937
323.15 K | 1.4897
333.15 K | 1.4864
343.15 K | 1.4834
353.15 K | 1.4806
363.15 K | 1.4788

Liquid
Conditions | mass density [kg/m3] | viscosity [mPa·s]
298.15 K, 101 kPa, Vibrating tube method | 984 | –
303.15 K, 101 kPa, Vibrating tube method | 979.7 | –
313.15 K, 100 kPa, Concentric cylinders viscometry | – | 3716
313.15 K, 101 kPa, Vibrating tube method | 974.4 | –
323.15 K, 100 kPa, Concentric cylinders viscometry | – | 1613
323.15 K, 101 kPa, Vibrating tube method | 968.1 | –
333.15 K, 100 kPa, Concentric cylinders viscometry | – | 778.9
333.15 K, 101 kPa, Vibrating tube method | 962.4 | –
343.15 K, 100 kPa, Concentric cylinders viscometry | – | 411.2
343.15 K, 101 kPa, Vibrating tube method | 956.4 | –
353.15 K, 100 kPa, Concentric cylinders viscometry | – | 233.7
353.15 K, 101 kPa, Vibrating tube method | 950.7 | –
363.15 K, 100 kPa, Concentric cylinders viscometry | – | 141.7
363.15 K, 101 kPa, Vibrating tube method | 943.8 | –

Liquid, Ring tensiometer
Conditions | surface tension liquid-gas [mN/m]
303.15 K | 34
313.15 K | 30.2
323.15 K | 28.4
333.15 K | 27.8
343.15 K | 27
353.15 K | 26.2
363.15 K | 25.5

Conditions | Normal melting temperature [°C]
Crystal, DTA | 28.96

CCCCCCCCCCCCCCn1cc[n+](C)c1.O=S(=O)([N-]S(=O)(=O)C(F)(F)F)C(F)(F)F
refractive index, [1], 101 kPa
Conditions | 303.15 K | 313.15 K | 323.15 K | 333.15 K | 343.15 K | 353.15 K | 363.15 K
Metastable liquid, Standard Abbe refractometry | 1.4384 | – | – | – | – | – | –
Standard Abbe refractometry, Liquid | – | 1.4352 | 1.4322 | 1.4292 | 1.4262 | 1.4233 | 1.4204

101 kPa, Liquid
Conditions | mass density, Vibrating tube method [kg/m3] | viscosity, Concentric cylinders viscometry [mPa·s]
303.15 K | 1197.1 | –
313.15 K | 1187.6 | 83.54
323.15 K | 1180 | 54.36
333.15 K | 1171.3 | 37.21
343.15 K | 1163.1 | 26.58
353.15 K | 1154.6 | 19.68
363.15 K | 1146.5 | 15.04

surface tension liquid-gas [mN/m]
Conditions | 303.15 K | 313.15 K | 323.15 K | 333.15 K | 343.15 K | 353.15 K | 363.15 K
Metastable liquid, Ring tensiometer | 26.3 | – | – | – | – | – | –
Ring tensiometer, Liquid | – | 25.3 | 24.5 | 23.7 | 22.9 | 22.3 | 21.7

Conditions | Normal melting temperature [°C]
Crystal, DTA | 34.4
